In brackets after ≈: the same amount, converted by molar mass.
Test: Toxicity in Artemia larvae
Assay type: organism-based
Conditions: in vivo, read-out: LD50 (the source's name)

Row | SMILES | LC50
1 | C=C1CCC[C@H]2[C@](C)(CC3=C(O)C(=O)C=C(OC)C3=O)[C@@H](C)CC[C@@]12C | 4 µg/mL (≈ 11.2 µM)
2 | COC1=CC(=O)C(O)=C(C[C@]2(C)[C@@H](C)CC[C@]3(C)C(C)=CCC[C@@H]23)C1=O [ISOSPONGIAQUINONE] | 2 µg/mL (≈ 5.58 µM)

From ChEMBL document CHEMBL1154560, “New sesquiterpene/quinones from two sponges of the genus Hyrtios” (J Nat Prod, 2000)
